Assay [1] concerns the target Aβ40 (Homo sapiens, UniProt P05067). The assay can be described thus: Competition with fluorescent dye ThT for binding to Aβ40 (in-vitro assay). The note with it: FIG. 1. Here is the method:
Competition for fluorescent binding to Aβ40: the inhibition test of competition binding to amyloid was carried out, in which 2 μM Aβ40, 1 μM amyloid fluorescent dye ThT, and 0.47 nM, 0.94 nM, 4.7 nM, 9.4 nM, 47 nM, 94 nM, 470 nM, 940 nM, 4700 nM and 9400 nM of standard compounds (PiB and BTA-1) and the compound of the present invention as the competing compounds were used. The reaction was carried out for 2 hrs at room temperature, which was excited by using Anthos Zenyth 3100 at an excitation wavelength of 485 nm, and then emitted a florescence of 535 nm. The binding rate of ThT to amyloid was set to 1 where no compound of the present invention was added to compete with ThT for binding. The PiB and BTA-1 were used as positive controls, and the binding rate of each concentration of compound was calculated according to the formula: binding rate=(fluorescence intensity with the compound of the present invention/fluorescence intensity without the compound of the present invention). The result is shown in FIG. 1, in which the horizontal axis is the concentration of the competing compound, and the longitudinal axis is the binding rate of ThT.

Assay [2] has as its system β-amyloid. The note with it: stated as known; cited from earlier work.

Entries after “also recorded” stand apart in the source; their conditions may differ.

Aβ40, sequence (P05067 672-711 limits assumed): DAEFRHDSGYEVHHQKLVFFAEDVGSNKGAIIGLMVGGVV

As to `CC(C)c1ccc(N2Cc3ccc(N)cc3C2)cc1` [the compound of the present invention, N-(4-isopropylphenyl)-5-amino-isoindoline], in assay [1] (2 μM Aβ40, 1 μM ThT, 0.47 nM to 9400 nM competing compound, 2 hrs at room temperature, excitation 485 nm, emission 535 nm), the “binding rate of ThT to amyloid in competition with the compound” value is given as “can compete with the β-amyloid dye thioflavin T (ThT) for binding to amyloid; also recorded: decrease gradually with the increasing concentration of the compound of the present invention”. Also, the “ThT binding rate compared with PiB and BTA-1” value in assay [1] (at a low concentration of competing compound) is reported as “comparable to that of other known compounds at a low concentration”. With `CNc1ccc(-c2nc3ccccc3s2)cc1` [BTA-1], the “affinity to β-amyloid” value in assay [2] is “high affinity”. Consider `[11CH3]Nc1ccc(-c2nc3ccc(O)cc3s2)cc1` [PiB], for which the “affinity to β-amyloid” value in assay [2] is given as “high affinity”.
